# “Also recorded” adds a separate entry of the source. Where two headings read alike, the source gives them in different places.
# Legend:
# Design in all cases: species or system Lymantria dispar
# L. dispar PBP 2 = assay: Pheromone-binding protein (PBP) ligand binding assay, PBP2
# Method: A. The protein and ligand are incubated in buffer overnight. B. For half of the incubation mixture, the free ligand (L) is separated from the protein-bound ligand (P.L) by size-exclusion chromatography on P2 Gel (BioRad, exclusion limit 2000 Da). The protein elutes from the small column bed, with its ligand bound (see Examples and […] et al. 2000; Staddon and Everton 1980), while the free ligand is retained on the column ([…] et al. 2000). C. […] The extract from the filtrate (B) contains the protein-bound ligand and the extract from the incubation mixture (A) contains all the ligand (bound and free) present in the aqueous phase. The extracts are analyzed by GC-MS, to obtain values for total ligand in solution (L+P.L) and for protein-bound ligand (P.L). These can then be used to calculate % bound (Table 3). These assays were performed as described in FIG. 3 and as follows: L. dispar PBP 1 or PBP 2 was incubated with the test compound or mini-library. The PBP and the ligand(s) (L) were left to equilibrate (eq 2) overnight. The non-bound ligand was then separated from the protein-bound material (PBP.L) by size-exclusion chromatography. By determining the total ligand in solution at equilibrium (eq. 3) and the protein-bound ligand, it is possible to estimate the percentage of ligand bound to the protein at equilibrium (eq. 4). […] This binding assay has been validated extensively in previous studies ([…] et al. 2000). The components of each mini-library separated cleanly by GC, so it was possible to monitor binding of individual components. PBP+L⇄PBP·L (eq. 2) [L]tot=[L]+[PBP·L] (eq. 3) % bound=100×[PBP·L]/[L]tot (eq. 4) Results: The members of each mini-library separated cleanly by GC, therefore it was possible to monitor binding of individual members to PBP1 or PBP2, the two known PBPs in the gypsy moth, by extraction from the aqueous incubation mixture, followed by GC analysis of the extract (FIG. 3).
# [1] = system: male gypsy moth antenna response to pheromone (+)-1; assay: EAG short-term (STI) and long-term (LTI) inhibition of pheromone signaling (Example 5); conditions: for inhibition at 0.001 mg / inhibition at 0.01 mg / inhibition at 0.1 mg / inhibition at 100 µg, 0.1 mg: Lymantria dispar, mean ± S.E.; for inhibition at 0.001 mg: mixed plume (+)-1 100 ng + compound 1 μg; for inhibition at 0.001 mg / inhibition at 0.01 mg / inhibition at 0.1 mg: negative = enhancement, read-out: Activity (%): short-term inhibition (STI); for inhibition at 0.01 mg: mixed plume (+)-1 100 ng + compound 10 μg; for inhibition at 0.1 mg: mixed plume (+)-1 100 ng + compound 100 μg (puff v); for inhibition at 100 µg, 0.1 mg: pure (+)-1 100 ng plume following mixed plume with 100 μg compound, read-out: Activity (%): long-term inhibition (LTI)
# Outline: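 Excised male gypsy moth antenna in saline pH 6.8 under purified air (300 mL/min); 0.3 s puffs: air, (+)-1 100 ng, (+)-1 plus compound 1, 10, 100 μg per cartridge, then (+)-1 alone. STI: mixed-puff air-corrected depolarization loss versus first pheromone puff; LTI: final pheromone-puff loss.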
# [2] = system: male gypsy moth antenna response to mixed pheromone/modulator plume; assay: EAG peak broadening (PB) (Example 11); conditions: for activity (% peak broadening): mixed plume, 100 μg compound and 100 ng pheromone (puff v vs puff ii)
# Method: A mixed pheromone/modulator plume could elicit a prolonged response (FIG. 1A, puff v; FIG. 2), and this was termed peak broadening (PB). PB was calculated from the EAG traces as follows: PB=100×(Δtv−Δtii)/Δtii
# Where Δt was the width of the EAG peak (in s) from the start of the depolarization to the return to background potential.
# [3] = member tested within library 3c{1, 1-5}
# [4] = tested as single compound, means ± S.E., 4 replicates
# [5] = member tested within library 3c{3, 1-5}, Nd = not detected in GC-MS
# [6] = member tested within library 3c{2, 1-5}
structure (smiles),measurement,setting,value
"COc1ccc(OC)cc1 [3c{1,1}, 1,4-Dimethoxy benzene]",PBP2 (% bound),L. dispar PBP 2; [3],19 ± 0.9%
same,PBP2 (% bound),L. dispar PBP 2; [4],13 ± 2.1%
same,inhibition at 0.001 mg,[1],24 ± 8%
same,inhibition at 0.01 mg,[1],23 ± 9%
same,inhibition at 0.1 mg,[1],15 ± 25%
same,"inhibition at 100 µg, 0.1 mg",[1],-7 ± 10%
same,activity (% peak broadening),[2],77 ± 12%
"CCCOc1ccc(OC)cc1 [3c{1,3}, 1-methoxy-4-propoxy-benzene]",PBP2 (% bound),L. dispar PBP 2; [3],5 ± 2.1%
same,PBP2 (% bound),L. dispar PBP 2; [5],7 ± 0.2%
same,inhibition at 0.001 mg,[1],28 ± 16%
same,inhibition at 0.01 mg,[1],-2 ± 5%
same,inhibition at 0.1 mg,[1],48 ± 14%
same,"inhibition at 100 µg, 0.1 mg",[1],39 ± 12%
same,peak broadening / prolongation of the EAG signal (in words),[2]; 1:1000 ratios,significant prolongation of the EAG signal; also recorded: strongest peak broadening compound
same,activity (% peak broadening),[2],175 ± 23%
"CCOc1ccc(OCC)cc1 [3c{2,2}, 1,4-Diethoxy benzene]",PBP2 (% bound),L. dispar PBP 2; [6],33 ± 0.6%
same,PBP2 (% bound),L. dispar PBP 2; [4],19 ± 0.2%
same,inhibition at 0.001 mg,[1],7 ± 12%
same,inhibition at 0.01 mg,[1],-19 ± 8%
same,inhibition at 0.1 mg,[1],-27 ± 15%
same,"inhibition at 100 µg, 0.1 mg",[1],17 ± 11%
same,activity (% peak broadening),[2],71 ± 30%
"CCCOc1ccc(OCC)cc1 [3c{2,3}, 1-ethoxy-4-propoxy benzene]",PBP2 (% bound),L. dispar PBP 2; [6],22 ± 0.3%
same,PBP2 (% bound),L. dispar PBP 2; [5],6 ± 0.2%
same,long-term inhibition (LTI) activity (in words),[1],strongest long-term inhibitor
same,inhibition at 0.001 mg,[1],8 ± 20%
same,inhibition at 0.01 mg,[1],-30 ± 10%
same,inhibition at 0.1 mg,[1],-62 ± 50%
same,"inhibition at 100 µg, 0.1 mg",[1],58 ± 7%
same,long-term inhibition (LTI) activity (in words),"[1]; listed as 3c{2, 3}",most active
same,activity (% peak broadening),[2],94 ± 24%
"CCCOc1ccc(OCCC)cc1 [3c{3,3}, 1,4-Dipropoxy benzene]",PBP2 (% bound),L. dispar PBP 2; [5],3 ± 0.1%
same,PBP2 (% bound),L. dispar PBP 2; [4],5 ± 0.2%
same,inhibition at 0.001 mg,[1],-3 ± 13%
same,inhibition at 0.01 mg,[1],-60 ± 38%
same,inhibition at 0.1 mg,[1],-100 ± 40%
same,"inhibition at 100 µg, 0.1 mg",[1],29 ± 13%
"CC(C)CCOc1ccc(OCCC(C)C)cc1 [3c{5,5}, 1,4-Di-(3-methyl-butyloxy) benzene]",PBP2 (% bound),"L. dispar PBP 2; member tested within library 3c{5, 1-5}",1 ± 0.1%
same,PBP2 (% bound),L. dispar PBP 2; [4],8 ± 0.2%
same,inhibition at 0.001 mg,[1],41 ± 14%
same,inhibition at 0.01 mg,[1],4 ± 26%
same,inhibition at 0.1 mg,[1],50 ± 9%
same,"inhibition at 100 µg, 0.1 mg",[1],7 ± 4%

# — patent US9497963B2, “Methods and compositions for control of gypsy moth, Lymantria dispar” (Simon Fraser University, priority 2008, dated 2016)
